Test results taken from publication PMC11434067, “Bioassay-Guided Isolation and Identification of Xanthine Oxidase Inhibitory Constituents from the Fruits of Chaenomeles speciosa (Sweet) Nakai” (Molecules, 2024).
Where two headings read alike, the source gives them in different places.

How the values were obtained:
[1] = molecular target: T1, XO (Bos taurus, UniProt P80457); experiment: In vitro xanthine oxidase inhibition assay (uric acid formation, absorbance at 290 nm); format: biochemical
[2] = molecular target: T1, XO; settings: cited from earlier work

T1 sequence (P80457 whole entry): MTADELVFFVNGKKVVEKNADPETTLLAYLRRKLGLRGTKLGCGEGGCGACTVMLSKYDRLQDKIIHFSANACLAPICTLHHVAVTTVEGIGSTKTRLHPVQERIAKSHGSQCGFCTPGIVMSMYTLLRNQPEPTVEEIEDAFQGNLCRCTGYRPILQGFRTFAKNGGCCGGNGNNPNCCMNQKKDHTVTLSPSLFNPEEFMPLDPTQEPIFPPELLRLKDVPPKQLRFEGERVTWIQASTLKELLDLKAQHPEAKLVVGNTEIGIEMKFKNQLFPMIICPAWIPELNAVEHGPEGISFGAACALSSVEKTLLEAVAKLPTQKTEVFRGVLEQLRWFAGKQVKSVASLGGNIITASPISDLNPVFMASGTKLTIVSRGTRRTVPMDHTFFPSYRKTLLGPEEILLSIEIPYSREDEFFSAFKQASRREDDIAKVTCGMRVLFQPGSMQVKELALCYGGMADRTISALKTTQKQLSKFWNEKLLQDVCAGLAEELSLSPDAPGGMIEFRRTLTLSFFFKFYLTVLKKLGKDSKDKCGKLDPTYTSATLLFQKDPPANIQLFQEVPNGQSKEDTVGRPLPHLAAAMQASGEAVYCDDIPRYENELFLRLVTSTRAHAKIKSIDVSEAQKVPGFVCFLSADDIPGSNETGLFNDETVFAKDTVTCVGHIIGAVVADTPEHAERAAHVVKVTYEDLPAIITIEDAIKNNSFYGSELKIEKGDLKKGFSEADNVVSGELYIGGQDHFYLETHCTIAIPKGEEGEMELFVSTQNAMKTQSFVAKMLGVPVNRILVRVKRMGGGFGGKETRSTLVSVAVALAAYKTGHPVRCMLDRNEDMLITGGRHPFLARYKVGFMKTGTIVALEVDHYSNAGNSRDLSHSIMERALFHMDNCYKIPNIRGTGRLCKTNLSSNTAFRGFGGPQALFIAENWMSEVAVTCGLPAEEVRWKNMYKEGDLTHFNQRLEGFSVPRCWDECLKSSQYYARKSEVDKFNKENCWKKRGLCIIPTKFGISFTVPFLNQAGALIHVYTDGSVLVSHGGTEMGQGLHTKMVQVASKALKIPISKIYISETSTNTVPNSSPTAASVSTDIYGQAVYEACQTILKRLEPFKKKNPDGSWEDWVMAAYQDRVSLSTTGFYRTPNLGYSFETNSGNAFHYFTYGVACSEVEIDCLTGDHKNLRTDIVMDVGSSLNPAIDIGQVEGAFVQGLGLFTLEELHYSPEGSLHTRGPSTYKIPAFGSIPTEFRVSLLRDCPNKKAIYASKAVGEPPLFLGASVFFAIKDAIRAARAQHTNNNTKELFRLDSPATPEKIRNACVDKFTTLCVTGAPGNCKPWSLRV

| Structure (SMILES) | IC50 [1] | further results |
| --- | --- | --- |
| CCCCOC(=O)C1(O)CC(O)C(O)C(OC(=O)C=Cc2ccc(O)c(O)c2)C1 (stereo not drawn) [compound 2, butyl chlorogenate] | 399 µM |  |
| O=C(O)/C=C/c1ccc(O)cc1 [compound 7, p-coumaric acid] | 351 µM |  |
| CCOC(=O)[C@]1(O)C[C@@H](O)[C@@H](O)[C@H](OC(=O)/C=C/c2ccc(O)c(O)c2)C1 [compound 3, ethyl chlorogenate] | 450 µM |  |
| O=C(O)c1ccc(O)c(O)c1 [compound 9, protocatechuic acid] | 651 µM |  |
| COC(=O)C1(O)C[C@@H](O)C(OC(=O)/C=C/c2ccc(O)c(O)c2)[C@H](O)C1 (stereo partly drawn) [compound 5, cryptochlorogenic acid methyl ester] | 600 µM |  |
| COC(=O)[C@]1(O)C[C@@H](O)[C@@H](O)[C@H](OC(=O)/C=C/c2ccc(O)c(O)c2)C1 [compound 1, methyl chlorogenate] | 425 µM |  |
| O=C(O)c1ccccc1 [compound 8, benzoic acid] | 104 µM | inhibition of XO at low concentration (in words) ([1]; concentration lower than 200 µM): high inhibition |
| O=C(O)/C=C/c1ccc(O)c(O)c1 [compound 6, caffeic acid] | 242 µM |  |
| O=C(/C=C/c1ccc(O)c(O)c1)O[C@@H]1C[C@](O)(C(=O)O)C[C@@H](O)[C@H]1O [compound 4, chlorogenic acid] | 297 µM | type of XO inhibition ([2]; ref 45): noncompetitive inhibition; type of XO inhibition ([2]; ref 46): non-competitive inhibitory effect |
